Active and inactive are the calls of the source. No cut-off for these calls is given here.
Experiments:
[1] = Inhibition of Wnt/beta-catenin signalling in Wnt3a stimulated human HEK293 cells assessed as reduction in luciferase activity incubated for 24 hrs by TOPFlash luciferase reporter assay; type: cell-based; conditions: HEK293, 24 h
[2] = biological target: Protein smoothened (Homo sapiens) (UniProt Q99835); assay: Binding affinity to SMO (unknown origin) assessed as dissociation constant by SPR analysis
Frizzled-7 = Frizzled-7 (Homo sapiens, UniProt O75084); assay: Antagonist activity at his-tagged FZD7 transmembrane domain (unknown origin) assessed as dissociation constant by SPR analysis

Chain of Protein smoothened (Homo sapiens) (Q99835 whole entry, the tested form may be a part): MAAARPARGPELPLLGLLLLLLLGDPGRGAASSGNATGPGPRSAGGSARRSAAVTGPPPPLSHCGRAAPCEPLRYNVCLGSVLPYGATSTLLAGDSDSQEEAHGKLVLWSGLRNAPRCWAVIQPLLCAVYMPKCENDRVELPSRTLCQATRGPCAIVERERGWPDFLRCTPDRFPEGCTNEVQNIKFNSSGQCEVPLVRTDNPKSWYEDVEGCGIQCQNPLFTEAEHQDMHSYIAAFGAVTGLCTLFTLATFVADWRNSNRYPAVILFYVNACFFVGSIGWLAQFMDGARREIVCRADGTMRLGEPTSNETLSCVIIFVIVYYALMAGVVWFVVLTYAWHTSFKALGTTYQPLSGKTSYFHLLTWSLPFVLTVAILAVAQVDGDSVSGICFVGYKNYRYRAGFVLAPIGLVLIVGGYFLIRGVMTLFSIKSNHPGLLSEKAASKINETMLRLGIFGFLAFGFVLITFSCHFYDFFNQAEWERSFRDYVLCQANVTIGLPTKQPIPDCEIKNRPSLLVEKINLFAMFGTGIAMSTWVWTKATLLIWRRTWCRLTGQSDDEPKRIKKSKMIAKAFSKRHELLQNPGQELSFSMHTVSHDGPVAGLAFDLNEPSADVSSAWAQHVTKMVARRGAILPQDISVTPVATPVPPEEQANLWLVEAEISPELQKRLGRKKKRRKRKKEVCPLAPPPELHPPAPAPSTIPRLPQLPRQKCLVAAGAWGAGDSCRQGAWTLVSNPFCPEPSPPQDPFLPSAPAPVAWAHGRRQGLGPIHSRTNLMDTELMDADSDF

With `Cc1ccc(C(=O)Nc2ccc(SCC(=O)Nc3nc(-c4ccccc4)cs3)cc2)cc1` the IC50 [1] was 230 nM.
For `O=C(CSc1ccc(NC(=O)c2ccc(F)cc2)cc1)Nc1nc(-c2ccccc2)cs1`, the Activity [2] was “inactive”, the IC50 [1] was 1280 nM and the Kd (Frizzled-7) was 160 nM.
Compound `Cc1ccc(C(=O)Nc2ccc(SCC(=O)Nc3nc(-c4ccccc4)cs3)cc2)c(C)c1` has an IC50 [1] of 40 nM.

— ChEMBL document CHEMBL5321296, “Structure-Based Ligand Discovery Targeting the Transmembrane Domain of Frizzled Receptor FZD7” (J Med Chem, 2023)
